Experimental data from publication PMC6269915, “Design, Synthesis and Evaluation of 3-(2-Aminoheterocycle)-4-benzyloxyphenylbenzamide Derivatives as BACE-1 Inhibitors” (Molecules, 2013).
Entries after “also recorded” stand apart in the source; their conditions may differ. Where a name gives a salt, the structure may show the parent alone. Read-outs that look alike come from different tables or passages of the source.

Columns and labels:
BACE-1 [1] = target: T1, BACE-1 (Homo sapiens, UniProt P56817); assay: BACE-1 inhibition, fluorescence resonance energy transfer (FRET) assay; assay type: biochemical; details: BACE-1 FRET assay; for inhibition at 20 µg/mL: 20 μg/mL
T1 construct: host or cells: insect cells
Procedure: The obtained target compounds were tested for their BACE-1 inhibitory activities using a fluorescence resonance energy transfer (FRET) assay, with OM99-2, a potent peptidomimetic inhibitor, as the positive control.
All synthesized compounds were tested for their BACE 1 inhibitor activities using a fluorescence resonance energy transfer (FRET) assay, which used purified insect-expressed BACE-1 and a specific substrate. An excitation wavelength of 355 nm and an emission wavelength of 460 nm were used to monitor the hydrolysis of substrate.

[2] = Bidirectional transport across MDCK monolayer cells; assay type: in vitro ADME, canine; details: dog
Procedure: (§1) Blood-brain barrier (BBB) permeation is critical for any AD therapeutic drug.
(§2) Madin-Darby canine kidney cell line (MDCK) was obtained from Peking Union Medical College (Beijing, China). The MDR1-transfected MDCK-MDR1 cells were established in Prof. Su Zeng’s laboratory as follows: MDCK cells were seeded onto six-well plates with a seeding density of 1 × 10^5 cells/well and cultured for 48 h. pcDNA3.1(+)/MDR1 plasmid vector was transfected into MDCK cells using Lipofectamine ^TM 2000 reagent according to the manufacturer’s instructions. Cells were subcultured in DMEM containing 600 µg/mL G418 for 96 h, and then replaced by DMEM containing 800 μg/mL G418 for a further 24 h. Cells were transferred to culture bottle and incubated in DMEM supplemented with 600 μg/mL G418 for 20 days. 19 stable transfected monoclonals grown on 96-well plates were obtained after dilution screening. Cells were cultured in DMEM with 10% fetal bovine serum, and grown in a humidified atmosphere of 5% CO2 at 37 °C. A solution of 0.25% trypsin-EDTA was used to detach the cells from flasks.
MDCK and MDCK-MDR1 cells were washed twice and equilibrated at 37 °C for 30 min with pre-warmed transport buffer. Hanks’ balanced salted solution (HBSS) containing HEPES (25 mM, pH 7.4). The transport buffer containing drug passed through a 0.2 μm membrane filter for degerming. For the absorption study (Apical to Basolateral), 0.5 mL incubation medium containing drug was added to the apical side as a donor chamber, 1.5 mL fresh incubation medium was added to the basolateral side as a receiver chamber. For the secretion study (Basolateral to Apical), 1.5 mL incubation medium containing drug was added to the basolateral side as a donor chamber, 0.5 mL fresh incubation medium was added to the apical side as a receiver chamber. Transport studies were conducted at 37 °C in a humidiﬁed incubator with shaking (50 rpm) for 1 h, and then the collected samples were analyzed by HPLC. […]

MDCK-MDR1 cells = assay: Bidirectional transport across MDCK-MDR1 monolayer cells; assay type: in vitro ADME, canine
Procedure: as §1, §2
(§3) MDCK and MDCK-MDR1 cells were washed twice and equilibrated at 37 °C for 30 min with pre-warmed transport buffer. Hanks’ balanced salted solution (HBSS) containing HEPES (25 mM, pH 7.4). The transport buffer containing drug passed through a 0.2 μm membrane filter for degerming. For the absorption study (Apical to Basolateral), 0.5 mL incubation medium containing drug was added to the apical side as a donor chamber, 1.5 mL fresh incubation medium was added to the basolateral side as a receiver chamber. For the secretion study (Basolateral to Apical), 1.5 mL incubation medium containing drug was added to the basolateral side as a donor chamber, 0.5 mL fresh incubation medium was added to the apical side as a receiver chamber. Transport studies were conducted at 37 °C in a humidiﬁed incubator with shaking (50 rpm) for 1 h, and then the collected samples were analyzed by HPLC. Apparent permeability coefficients (Papp(A-B), Papp(B-A)) and efflux ratio (Pratio = (Papp(B-A)/Papp(A-B)) were used to evaluate the permeability and absorption profiles of compounds. P ratio is an important parameter to denote if a compound is a substrate of P-gp or not.

P-gp (MDR1) = assay: as above; assay type: in vitro ADME, canine; details: dog
Procedure: as §1, §2, §3

BACE-1 [3] = target: T1, BACE-1; details: cited from earlier work
[4] = design: method as in PMID 17156133; details: in words; cited from earlier work
[5] = design: method as in PMID 19409780; details: mice, 20 mg/kg iv, t = 30 min; cited from earlier work
[6] = pH 7.4, 55.6 μM 5e, 1 h, mean ± SD, n = 3
[7] = pH 7.4, MDCK-MDR1, 55.6 μM 5e, 1 h, mean ± SD, n = 3

T1 sequence (P56817 46-501): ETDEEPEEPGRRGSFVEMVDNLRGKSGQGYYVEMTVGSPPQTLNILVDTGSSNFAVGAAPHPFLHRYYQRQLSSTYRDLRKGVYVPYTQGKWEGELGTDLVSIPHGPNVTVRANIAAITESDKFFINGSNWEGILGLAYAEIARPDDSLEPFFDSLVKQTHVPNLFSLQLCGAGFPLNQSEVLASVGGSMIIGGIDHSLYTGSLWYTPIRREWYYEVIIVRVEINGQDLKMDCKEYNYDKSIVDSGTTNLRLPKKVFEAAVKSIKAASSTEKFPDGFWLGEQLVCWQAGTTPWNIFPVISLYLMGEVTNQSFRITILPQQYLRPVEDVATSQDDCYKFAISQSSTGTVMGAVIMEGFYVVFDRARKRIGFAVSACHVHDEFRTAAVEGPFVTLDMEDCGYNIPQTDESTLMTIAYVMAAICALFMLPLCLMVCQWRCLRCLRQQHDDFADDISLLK

Row | melting point | inhibition at 20 µg/mL (BACE-1 [1]) | SMILES | also measured
1 | 222 to 225 °C | – | NC1=NN=C(c2cc(NC(=O)c3ccc(C(F)(F)F)cc3)ccc2OCc2ccccc2)CS1 (as salt: hydrobromid) [5c, N-(3-(2-Amino-6H-1,3,4-thiadiazin-5-yl)-4-(benzyloxy)phenyl)-4-(trifluoromethyl)-benzamide hydro-bromide] | –
2 | 246 to 247 °C | 64.2 ± 0.5% | Br.NC1=NN=C(c2cc(NC(=O)c3ccccc3)ccc2OCc2ccccc2)CS1 [5a, N-(3-(2-Amino-6H-1,3,4-thiadiazin-5-yl)-4-(benzyloxy)phenyl)benzamide hydrobromide] | IC50 (BACE-1 [1]): 16.7 µM
3 | 217 to 218 °C | 76 ± 2.5% | Br.NC1=NN=C(c2cc(NC(=O)c3ccc(Cl)cc3)ccc2OCc2ccccc2)CS1 [5b, N-(3-(2-Amino-6H-1,3,4-thiadiazin-5-yl)-4-(benzyloxy)phenyl)-4-chlorobenzamide hydrobromide] | IC50 (BACE-1 [1]): > 20 µM
4 | – | 46.9 ± 7.5% | NC1=NN=C(c2cc(NC(=O)c3ccc(C(F)(F)F)cc3)ccc2OCc2ccccc2)CS1 [5c, N-(3-(2-Amino-6H-1,3,4-thiadiazin-5-yl)-4-(benzyloxy)phenyl)-4-(trifluoromethyl)-benzamide hydro-bromide] | –
5 | 181 to 182 °C | 84.9 ± 16.7% | Br.COc1ccc(C(=O)Nc2ccc(OCc3ccccc3)c(C3=NN=C(N)SC3)c2)cc1 [5d, N-(3-(2-Amino-6H-1,3,4-thiadiazin-5-yl)-4-(benzyloxy)phenyl)-4-methoxybenzamide hydrobromide] | IC50 (BACE-1 [1]): > 20 µM
6 | 219 to 221 °C | 60 ± 3.1% | Br.NC1=NN=C(c2cc(NC(=O)c3cccc4ccccc34)ccc2OCc2ccccc2)CS1 [5e, N-(3-(2-Amino-6H-1,3,4-thiadiazin-5-yl)-4-(benzyloxy)phenyl)-1-naphthamide hydrobromide] | IC50 (BACE-1 [1]): 9.9 µM; Papp A→B at 1 h, 55.6 μM [2, 6]: 28.2 ± 6.45 ×10⁻⁶ cm/s; Papp B→A at 1 h, 55.6 μM [2, 6]: 27.7 ± 2.87 ×10⁻⁶ cm/s; efflux ratio at 1 h, 55.6 μM ([2]; pH 7.4, Papp(B-A)/Papp(A-B)): 0.98; Blood-brain barrier permeability assessment (MDCK-MDR1 cells; MDCK and MDCK-MDR1 model, in words): high brain uptake potential; also recorded: good penetration ability through the blood-brain barrier; also recorded: favorable blood-brain barrier permeability; P-gp substrate assessment (MDCK-MDR1 cells; net efflux ratio less than FDA's recommendation of 2): not a P-gp substrate; efflux ratio at 1 h, 55.6 μM (P-gp (MDR1); MDCK-MDR1, pH 7.4, MDCK-MDR1, Papp(B-A)/Papp(A-B), read-out: Efflux ratio): 0.7; efflux ratio at 1 h, 55.6 μM (P-gp (MDR1); MDCK-MDR1, pH 7.4, MDCK-MDR1 versus MDCK, read-out: Net efflux ratio): 0.71; Papp A→B at 1 h, 55.6 μM (P-gp (MDR1); [7]): 31.8 ± 1.85 ×10⁻⁶ cm/s; Papp B→A at 1 h, 55.6 μM (P-gp (MDR1); [7]): 22.2 ± 1.24 ×10⁻⁶ cm/s

Further lines, the compound ahead of its results:

Row | SMILES | melting point | inhibition at 20 µg/mL (BACE-1 [1]) | also measured
7 | Nc1nc(-c2cc(NC(=O)c3ccccc3)ccc2OCc2ccccc2)cs1 [3a, N-(3-(2-Aminothiazol-4-yl)-4-(benzyloxy)phenyl)benzamide] | – | 29.3 ± 1.3% | –
8 | Nc1nc(-c2cc(NC(=O)c3ccc(Cl)cc3)ccc2OCc2ccccc2)cs1 [3b, N-(3-(2-Aminothiazol-4-yl)-4-(benzyloxy)phenyl)-4-chlorobenzamide] | – | 20.4 ± 4.4% | –
9 | Nc1nc(-c2cc(NC(=O)c3ccc(C(F)(F)F)cc3)ccc2OCc2ccccc2)cs1 [3c, N-(3-(2-Aminothiazol-4-yl)-4-(benzyloxy)phenyl)-4-(trifluoromethyl)benzamide] | – | 33 ± 1.9% | –
10 | COc1ccc(C(=O)Nc2ccc(OCc3ccccc3)c(-c3csc(N)n3)c2)cc1 [3d, N-(3-(2-Aminothiazol-4-yl)-4-(benzyloxy)phenyl)-4-methoxybenzamide] | – | 29.5 ± 3.5% | –
11 | Nc1nc(-c2cc(NC(=O)c3cccc4ccccc34)ccc2OCc2ccccc2)cs1 [3e, N-(3-(2-Aminothiazol-4-yl)-4-(benzyloxy)phenyl)-1-naphthamide] | 198 to 200 °C | 55.3 ± 5.7% | IC50 (BACE-1 [1]): > 20 µM
12 | Nc1nc(-c2cc(NC(=O)c3cccnc3)ccc2OCc2ccccc2)cs1 [3f, N-(3-(2-Aminothiazol-4-yl)-4-(benzyloxy)phenyl)nicotinamide] | 212 to 213 °C | 36.8 ± 6.9% | –
13 | Nc1nc(-c2cc(NC(=O)Cc3ccccc3)ccc2OCc2ccccc2)cs1 [3g, N-(3-(2-Aminothiazol-4-yl)-4-(benzyloxy)phenyl)-2-phenylacetamide] | 190 to 193 °C | 8.9 ± 7% | –
14 | Nc1nc(-c2cc(NC(=O)CCc3ccccc3)ccc2OCc2ccccc2)cs1 [3h, N-(3-(2-Aminothiazol-4-yl)-4-(benzyloxy)phenyl)-3-phenylpropanamide] | 192 to 193 °C | 3.1 ± 2.5% | –
15 | Nc1nc(-c2cc(NC(=O)Cc3cccc4ccccc34)ccc2OCc2ccccc2)cs1 [3i, N-(3-(2-Aminothiazol-4-yl)-4-(benzyloxy)phenyl)-2-(naphthalen-1-yl)acetamide] | 246 to 247 °C | 11.3 ± 0.7% | –
16 | Nc1nc(-c2cc(NC(=O)c3ccccc3)ccc2OCc2ccccc2)co1 [4a, N-(3-(2-Aminooxazol-4-yl)-4-(benzyloxy)phenyl)benzamide] | – | 38.8 ± 0.3% | –
17 | Nc1nc(-c2cc(NC(=O)c3ccc(Cl)cc3)ccc2OCc2ccccc2)co1 [4b, N-(3-(2-Aminooxazol-4-yl)-4-(benzyloxy)phenyl)-4-chlorobenzamide] | – | 49.9 ± 0.2% | –
18 | Nc1nc(-c2cc(NC(=O)c3ccc(C(F)(F)F)cc3)ccc2OCc2ccccc2)co1 [4c, N-(3-(2-Aminooxazol-4-yl)-4-(benzyloxy)phenyl)-4-(trifluoromethyl)benzamide] | 225 to 227 °C | 47.5 ± 9.9% | –
19 | COc1ccc(C(=O)Nc2ccc(OCc3ccccc3)c(-c3coc(N)n3)c2)cc1 [4d, N-(3-(2-Aminooxazol-4-yl)-4-(benzyloxy)phenyl)-4-methoxybenzamide] | – | 34.4 ± 5.7% | –
20 | Nc1nc(-c2cc(NC(=O)c3cccc4ccccc34)ccc2OCc2ccccc2)co1 [4e, N-(3-(2-Aminooxazol-4-yl)-4-(benzyloxy)phenyl)-1-naphthamide] | 195 to 197 °C | 42.6 ± 3.2% | –
21 | CCNc1cc(C(=O)N[C@@H](Cc2ccccc2)[C@H](O)CNCc2cccc(C(F)(F)F)c2)c(F)c(N2CCCCS2(=O)=O)c1 [GSK188909] | – | – | IC50 (BACE-1 [3]): 0.005 µM; blood-brain barrier permeability [4]: poor blood-brain barrier permeability
22 | NC1=NC(c2ccccc2)(c2ccccc2)C2=NCCCN12 [compound 2] | – | – | [brain] [5]: 15 µM
